Converted amounts (≈) assume the structure as drawn.
What was measured:
[1] = Fraction unbound in human plasma; assay type: ADME, cell-free
[2] = Fraction unbound in mouse plasma; assay type: ADME, cell-free
[3] = Fraction unbound in 10% fetal calf serum; assay type: ADME, cell-free, Bos taurus; conditions: cattle
[4] = target: Gamma-secretase (Homo sapiens) (UniProt Q96BI3+Q9NZ42+Q8WW43+P49768+Q92542+P49810); assay: (§1) Modulation of gamma secretase in human H4 cells over expressing human APP695 harboring K595N/M596L Swedish double mutant assessed as reduction in Abeta42 production after 24 hrs by Alphalisa assay; assay type: cell-based
Gamma-secretase = assay: as §1; assay type: cell-based
[5] = (§2) Modulation of mouse gamma secretase assessed as reduction in Abeta42 production
Mus musculus [6] = species on record: Mus musculus; assay: as §2
Mus musculus [7] = assay: In vivo modulation of gamma secretase in APP-Swedish transgenic mouse assessed as reduction in Abeta42 production by measuring remaining Abeta42 level at 1 mg/kg, po measured after 4 hrs by ELISA or AlphaLISA assay relative to control; assay type: functional
Mus musculus [8] = assay: In vivo modulation of gamma secretase in APP-Swedish transgenic mouse assessed as reduction in Abeta42 production by measuring remaining Abeta42 level at 3 mg/kg, po measured after 4 hrs by ELISA or AlphaLISA assay relative to control; assay type: functional
Mus musculus [9] = assay: In vivo modulation of gamma secretase in APP-Swedish transgenic mouse assessed as reduction in Abeta42 production by measuring remaining Abeta42 level at 10 mg/kg, po measured after 4 hrs by ELISA or AlphaLISA assay relative to control; assay type: functional
[10] = Octanol/water distribution co-efficient, log D of the compound at pH 7.4; assay type: physicochemical
[11] = Solubility of compound by lyophilisation solubility assay; assay type: physicochemical
[12] = Clearance in human hepatocytes assessed per million cells; assay type: ADME, cell-based, Hepatocyte; conditions: read-out: CLH
[13] = Clearance in mouse hepatocytes assessed per million cells; assay type: ADME, cell-based, Hepatocyte; conditions: read-out: CLH
[14] = target: Voltage-gated inwardly rectifying potassium channel KCNH2 (Homo sapiens, UniProt Q12809); assay: (§3) Inhibition of human ERG
Chain of Voltage-gated inwardly rectifying potassium channel KCNH2 (Q12809 whole entry): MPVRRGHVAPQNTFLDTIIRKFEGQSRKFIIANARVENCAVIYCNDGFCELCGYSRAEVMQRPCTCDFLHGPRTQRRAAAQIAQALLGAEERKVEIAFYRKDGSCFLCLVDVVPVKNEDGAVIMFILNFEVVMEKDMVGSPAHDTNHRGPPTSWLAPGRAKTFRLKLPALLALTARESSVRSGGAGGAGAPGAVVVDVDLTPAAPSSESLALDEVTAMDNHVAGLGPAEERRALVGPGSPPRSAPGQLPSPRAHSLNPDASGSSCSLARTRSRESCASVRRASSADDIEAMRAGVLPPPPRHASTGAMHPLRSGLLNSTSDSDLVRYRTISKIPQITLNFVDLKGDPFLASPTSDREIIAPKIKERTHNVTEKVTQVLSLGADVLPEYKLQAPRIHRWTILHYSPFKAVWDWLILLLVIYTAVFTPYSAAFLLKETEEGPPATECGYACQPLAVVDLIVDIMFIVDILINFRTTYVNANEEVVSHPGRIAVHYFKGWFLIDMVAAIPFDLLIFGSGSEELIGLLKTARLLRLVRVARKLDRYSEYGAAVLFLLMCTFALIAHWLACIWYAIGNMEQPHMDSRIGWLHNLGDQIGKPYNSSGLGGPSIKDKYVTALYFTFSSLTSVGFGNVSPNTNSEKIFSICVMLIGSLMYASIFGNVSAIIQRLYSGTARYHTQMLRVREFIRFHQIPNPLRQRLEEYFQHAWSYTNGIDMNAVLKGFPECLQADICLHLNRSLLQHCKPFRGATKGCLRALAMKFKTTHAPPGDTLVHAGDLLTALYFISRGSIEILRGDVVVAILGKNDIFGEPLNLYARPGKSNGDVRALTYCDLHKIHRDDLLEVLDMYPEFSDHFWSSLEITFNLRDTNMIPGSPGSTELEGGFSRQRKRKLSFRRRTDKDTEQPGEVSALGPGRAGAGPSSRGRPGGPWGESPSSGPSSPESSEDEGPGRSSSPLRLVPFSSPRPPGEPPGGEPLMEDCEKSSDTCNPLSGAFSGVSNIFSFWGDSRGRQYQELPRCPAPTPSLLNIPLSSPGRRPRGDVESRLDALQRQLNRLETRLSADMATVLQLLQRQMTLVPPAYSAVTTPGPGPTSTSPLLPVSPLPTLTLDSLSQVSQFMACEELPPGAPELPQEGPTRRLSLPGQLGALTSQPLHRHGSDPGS

hERG (KCNH2) = hERG (KCNH2) (Homo sapiens, UniProt Q12809); assay: as §3; conditions: human
Chain of hERG (KCNH2) (Q12809 whole entry): as above

[15] = target: Phosphatidylinositol 4-kinase beta (Homo sapiens, UniProt Q9UBF8); assay: Binding affinity to PIK4CB (unknown origin); assay type: ADME
Chain of Phosphatidylinositol 4-kinase beta (Q9UBF8 whole entry): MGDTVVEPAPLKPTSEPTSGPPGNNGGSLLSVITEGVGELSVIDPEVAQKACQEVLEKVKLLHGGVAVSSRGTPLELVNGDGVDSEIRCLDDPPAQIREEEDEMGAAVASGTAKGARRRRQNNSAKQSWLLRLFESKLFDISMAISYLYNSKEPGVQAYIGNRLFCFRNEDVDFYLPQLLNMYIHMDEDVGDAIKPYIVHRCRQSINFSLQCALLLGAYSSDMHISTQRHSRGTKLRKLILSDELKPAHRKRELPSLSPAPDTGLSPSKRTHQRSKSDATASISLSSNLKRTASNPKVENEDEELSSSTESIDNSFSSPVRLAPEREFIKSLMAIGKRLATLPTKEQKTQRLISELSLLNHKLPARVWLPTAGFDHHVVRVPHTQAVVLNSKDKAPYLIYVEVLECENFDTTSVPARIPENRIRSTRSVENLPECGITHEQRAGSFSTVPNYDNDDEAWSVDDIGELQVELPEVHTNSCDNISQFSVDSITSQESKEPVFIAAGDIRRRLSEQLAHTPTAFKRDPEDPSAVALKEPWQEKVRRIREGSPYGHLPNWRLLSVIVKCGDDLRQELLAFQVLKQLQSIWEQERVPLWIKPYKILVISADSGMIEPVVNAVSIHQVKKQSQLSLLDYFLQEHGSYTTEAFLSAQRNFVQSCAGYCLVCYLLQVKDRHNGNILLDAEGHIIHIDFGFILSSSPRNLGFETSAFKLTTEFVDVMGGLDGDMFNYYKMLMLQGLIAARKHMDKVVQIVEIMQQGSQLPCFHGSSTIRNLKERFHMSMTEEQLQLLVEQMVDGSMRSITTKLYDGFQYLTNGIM

Mus musculus [16] = assay: In vivo modulation of gamma secretase in APP-Swedish transgenic mouse assessed as reduction in Abeta42 production by measuring remaining Abeta42 level at 0.3 mg/kg, po measured after 4 hrs by ELISA or AlphaLISA assay relative to control; assay type: functional
Mus musculus [17] = assay: In vivo modulation of gamma secretase in po dosed APP-Swedish transgenic mouse assessed as reduction in total Abeta42 production level in brain administered as single dose by ELISA or AlphaLISA assay; assay type: functional, organism-based
Keratinocyte = assay: Phototoxicity in human Keratinocytes in presence of UVA at 320 to 400 nm; assay type: cell-based; conditions: light or radiation study
[18] = Dark toxicity in human Melanocytes assessed as reduction in cell viability; assay type: cell-based, Melanocyte
Melanocyte = assay: Phototoxicity in human Melanocytes in presence of UVA at 320 to 400 nm; assay type: cell-based; conditions: light or radiation study
[19] = Dark toxicity in human Keratinocytes assessed as reduction in cell viability; assay type: cell-based, Keratinocyte
[20] = Ratio of IC50 for dark toxicity in human Keratinocytes to IC50 for phototoxicity in human Keratinocytes in presence of UVA at 320 to 400 nm; assay type: cell-based, Keratinocyte; conditions: read-out: Ratio IC50
[21] = Ratio of IC50 for dark toxicity in human Melanocytes to IC50 for phototoxicity in human Melanocytes in presence of UVA at 320 to 400 nm; assay type: cell-based, Melanocyte; conditions: read-out: Ratio IC50
[22] = Covalent protein binding in human liver microsomes assessed per mg protein in presence of NADPH; assay type: ADME, Microsome

`Cc1nsc(N2CC3CCC(C2)C3Nc2nc3c(-c4ccc(F)c(F)c4F)cccn3n2)n1` (configuration not stated) showed a fraction unbound [1] of 0.004, a fraction unbound [2] of 0.003 and a fraction unbound [3] of 0.22. For the same molecule, the fIC50 [4] was 1 nM, the IC50 (Gamma-secretase) was 4.5 nM and the IC50 [5] was 4 nM. For the same molecule, the fIC50 (Mus musculus [6]) was 0.9 nM, the Activity (Mus musculus [7]) was 56% and the “remaining Abeta42 level (% of control)” value (Mus musculus [8]) was 27%. The “remaining Abeta42 level (% of control)” value (Mus musculus [9]) was 22%, the logD [10] was 4.1 to 4.14 and the solubility [11] was 3.8 to 3.86 µg/mL (≈ 8.06 to 8.19 µM). The hepatocyte CLint [12] was 6.6 µL/min/1e6 cells, the hepatocyte CLint [13] was 5.4 µL/min/1e6 cells and the IC50 [14] was < 2000 nM. For the same molecule, the IC20 (hERG (KCNH2)) was < 1000 nM, the Kd [15] was 120 nM and the Activity (Mus musculus [16]) was 75%. It also gave a fIC50 (Mus musculus [17]) of 0.5 nM, an IC50 (Mus musculus [17]; Mus musculus) of 160 nM and an IC50 (Keratinocyte) of 1670 nM. The IC50 [18] was > 38000 nM, the IC50 (Melanocyte) was 1670 nM and the IC50 [19] was > 38000 nM. For the same molecule, the selectivity ratio [20] was 22.9 to 23, the selectivity ratio [21] was 22.9 to 23 and the PB [22] was 105 pmol.

From ChEMBL document CHEMBL4619803, “Stepwise Design of γ-Secretase Modulators with an Advanced Profile by Judicious Coordinated Structural Replacements and an Unconventional Phenyl Ring Bioisostere” (J Med Chem, 2020)
